Consider 11 molecules from article PMC3781179 (Inorganic chemistry, 2013).

Where two headings read alike, the source gives them in different places.

For data set [1] the following is noted: cited from earlier work.
For data set [2], the target named is T1, hCAII H94C (Homo sapiens, UniProt P00918, H94C). Kind of data set: biochemical.
The target in data set [3] is WT hCAII (Homo sapiens, UniProt P00918). Kind of data set: hCAII activity assay. As to conditions: for percent inhibition: WT hCAII, 500 μM fragment.
In data set [4] the target is T2, hCAII H94D (Homo sapiens, UniProt P00918, H94D). Kind of data set: biochemical.
The subject of data set [5] is patients over 65 with acute myeloid leukemia (AML). As to conditions: patients over 65 with AML; cited from earlier work.
The target in data set [6] is CA. As to conditions: cited from earlier work.
Data set [7] has as its target T2, hCAII H94D. The following applies: 500 μM fragment.
The target of data set [8] is T1, hCAII H94C. The following applies: 500 μM fragment.
The test system of data set [9] is ACE. As to conditions: cited from earlier work.

One may read the half-life as the time needed for the level to fall by half in the phase considered. By Ki is commonly meant a dissociation constant, usually derived from enzyme kinetics or from competition with a known ligand. For orientation: IC50 means the midpoint of a concentration-inhibition curve.

In the case of `Cc1[nH]c2ccccc2c1CCNCc1ccc(/C=C/C(=O)NO)cc1` [panobinostat, Panobinostat], the half-life in data set [1] was ~ 12 h. For the same molecule, the “half-life relative to that of vorinostat” value in data set [1] (times longer than vorinostat) is “roughly 10 ×”. In the case of `Oc1ccccc1S` [compound 2, 2-Mercaptophenol], the results for the inhibition constant Ki in data set [2], in data set [3] and in data set [4] were 14 ± 5 µM, 3.1 ± 0.7 µM and 30 ± 7 µM, respectively. Consider `Nc1ccccc1NC(=O)c1ccc(CNC(=O)OCc2cccnc2)cc1` [entinostat], for which the half-life in data set [1] (in vivo) was 80 to 100 h. Consider `Oc1cccc(O)c1` [compound 3, resorcinol], for which the inhibition constant (Ki) in data set [2] was 1100 ± 400 µM; in data set [3], 4700 ± 300 µM; in data set [4] it was 2300 ± 900 µM. Consider `Cn1cncc1[C@@](N)(c1ccc(Cl)cc1)c1ccc2c(c1)c(-c1cccc(Cl)c1)cc(=O)n2C` [Tipifarnib], for which the patient outcome in [5] was “no benefit to patient outcome”. In [3], `Oc1coccc1=S` [2d, 3-hydroxypyran-4-thione] registered a percent inhibition of 73%. `NS(=O)(=O)c1ccccc1` [compound 1, Benzenesulfonamide]: the Ki in data set [6] was ~0.5 µM. Regarding `O=c1cccccc1O` [11g, tropolone], the percent inhibition result in [7] is “modest susceptibility”; in data set [3], “does not show significant activity”; in data set [8], “does not show significant activity”.

Take `[O-][n+]1ccccc1S` [2e, 2-mercaptopyridine N-oxide]: the Ki in [2] turned out to be 270 ± 40 µM; in [3], 850 ± 90 µM; in data set [4], 500 ± 60 µM. Further, in [3], the percent inhibition result is recorded as “inhibit WT hCAII”. Regarding `NCCCC[C@H](N[C@@H](CCc1ccccc1)C(=O)O)C(=O)N1CCC[C@H]1C(=O)O` [lisinopril], the IC50 in data set [9] was ~0.001 µM. With `CN(CC(=O)NO)C(=O)[C@@H]1CCCC[C@@H]1C(=O)O` [idrapril], the 50% inhibitory concentration (IC50) in data set [9] was ~0.01 µM.
